PubChem BioAssay AID489035 (Sanford-Burnham Center for Chemical Genomics, 2010)
Activity calls are given as the source filed them. No rule for the calls is given here.

Test system: Jurkat NF-kB reporter, TCR-induced, luciferase luminescence
Experiment: T-cell NF-kB luciferase reporter inhibition – Jurkat cells, luminescence, dose response (AID 489035)

SMILES | IC50
O=S(=O)(C/C(=C/CO)S(=O)(=O)c1ccccc1)c1ccccc1 | 0.77 µM
COc1ccc([N+](=O)[O-])cc1Nc1c2ccccc2nc2ccccc12 | 50.7 µM (inactive)
O=[N+]([O-])c1ccc(O)c(/C=N/Nc2ccc(Cl)nn2)c1 | 54 µM (inactive)
O=C(Nc1ccc(C(F)(F)F)cc1)c1cccn(Cc2ccc3c(c2)OC(F)(F)O3)c1=O | 17.2 µM
CCCCN=C[C@]12CCC(O)CC1(O)CCC1[C@@H]2CC[C@]2(C)[C@H](C3C=CC(=O)O3)CCC12O (some centres not stated) | > 80 µM (inactive)
COC(=O)Nc1ccc(S(=O)(=O)N2CCCc3ccccc32)cc1 | > 80 µM (inactive)
O=S(=O)(c1cc(F)ccc1F)N1CCN(c2ncnc3ccccc23)CC1 | > 80 µM (inactive)
CCc1ccc(/C=N/NC(=O)c2cc(-c3ccncc3)nc3ccccc23)s1 | > 80 µM (inactive)
COc1cccc(-c2cc(=O)c3cc(NC(=O)c4ccc(N(C)C)cc4)ccc3[nH]2)c1 | 6.22 µM
CCN(c1ccccc1)S(=O)(=O)c1ccc(C(=O)NC2CCN(Cc3ccccc3)CC2)cc1 | 33 µM (inactive)
COc1ccccc1-c1nnc2sc(-c3ccc(N(C)C)cc3)nn12 | > 80 µM (inactive)
O=C1CC(c2cc(F)ccc2F)c2cc3c(cc2N1)CCC3 (configuration not stated) | > 80 µM (inactive)
Cc1nc(NCc2ccco2)c2c(C)c(C)sc2n1 | 3.1 µM
CC(C)(C)c1ccc(C(=O)O/N=C(\N)c2ccccn2)cc1 | 9.45 µM
CCC(C)(C)c1ccc(OCCCC[n+]2cccc(C)c2C)c(C(C)(C)CC)c1 | 4.76 µM
COc1ccc(C)cc1NS(=O)(=O)c1ccc(-c2cnc(C3CC3)o2)cc1 | > 80 µM (inactive)
Cc1ccc(N2C(=O)c3cccc4c(N)ccc(c34)C2=O)c2cccnc12 | < 0.16 µM
COc1ccc(NC(=O)C(=O)NCC2CCCN2S(=O)(=O)c2cccs2)cc1 (configuration not stated) | 7.15 µM
CCS(=O)(=O)c1ncc(Cl)c(C(=O)Nc2ccc(S(=O)(=O)N(C)c3ccccc3)cc2)n1 | 0.8 µM

SMILES | IC50
COc1ccccc1NC(=O)Cn1nnc(C(=O)NCc2cccs2)c1N | > 80 µM (inactive)
C/C=C(\C)C(=O)N[C@@H](c1ccccc1)[C@@H](O)C(=O)O[C@H]1C[C@@]2(O)[C@@H](OC(=O)c3ccccc3)C3[C@](C)(C(=O)[C@H](OC(C)=O)C(=C1C)C2(C)C)[C@H](O)C[C@H]1OC[C@@]31OC(C)=O (some centres not stated) | < 0.16 µM
CC(C)CC[n+]1ccccc1/C=C/c1ccc(N(C)C)cc1 | > 80 µM (inactive)
COc1cccc(/C=N/Nc2ncnc3c2ncn3Cc2ccccc2)c1O | > 80 µM (inactive)
CCOc1ccccc1C1CC(=O)Nc2cc3c(cc21)OCCO3 (configuration not stated) | 3.96 µM
O=C(NCCOc1ccccc1)c1cc([N+](=O)[O-])ccc1N1CCOCC1 | > 80 µM (inactive)
N#Cc1ccc(-c2cccs2)nc1SCc1cccnc1 | > 80 µM (inactive)
COc1ccc(C[C@H](N)C(=O)N[C@H]2[C@@H](O)[C@H](n3cnc4c(N(C)C)ncnc43)O[C@@H]2CO)cc1 | 0.96 µM
CCOC(=O)Nc1nc(-c2ccccc2)c(C(=O)c2ccc(Cl)cc2)s1 | 4.16 µM
O=C(Nc1ccc(F)cc1)c1ccc(CN2CCc3ccccc3C2)cc1 | > 80 µM (inactive)
COc1cc([C@@H]2c3cc4c(cc3[C@@H](OC)[C@H]3COC(=O)[C@H]23)OCO4)cc(OC)c1O | > 80 µM (inactive)
CC(C)(C)OC(=O)NCCCCCc1cn(CC(=O)NCCCCCCCCCCC(=O)N2CCN(C(=O)OC(C)(C)C)CC2)nn1 | > 80 µM (inactive)
COc1ccc(C(=O)Nc2ccc3[nH]c(-c4cccc(OC)c4)cc(=O)c3c2)cc1 | < 0.16 µM
CCCC(=O)NC(c1ccc(C)cc1)c1ccc2cccnc2c1O (configuration not stated) | 8.63 µM
Cc1nc2ccccc2c2c1CC(C(C)(Cl)Br)O2 (configuration not stated) | > 80 µM (inactive)
Cc1c(C(=O)N2CCOCC2)[nH]c2c1C(=O)CC(c1ccccc1Cl)C2 (configuration not stated) | > 80 µM (inactive)
C/C=C/COC(=O)c1[nH]c2c(c1C)C(=O)CC(c1ccco1)C2 (configuration not stated) | > 80 µM (inactive)
CCn1c2ccccc2c2cc(NC(=O)c3cc(OC)c(OC)c(OC)c3)ccc21 | 76.2 µM (inactive)
